Data: ChEMBL document CHEMBL1201862, “PubChem BioAssay data set” (2004)
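Cells were grown in 96-well plates and exposed to each compound for 48 hours at five concentrations; endpoints were interpolated linearly between bracketing concentrations, or set to the highest concentration if not reached. GI50 marks 50% less growth.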 Active and inactive are the calls of the source. Cut-off read from the data, not from the text of the source: active = GI50 up to about 1.1 µM and inactive = higher.

Tests used:
Experiment in all cases: NCI-60 cell line screen, 48 h
ACHN = tested on: ACHN
OVCAR-4 = tested on: OVCAR-4
NCI-H460 = tested on: NCI-H460
MOLT-4 = tested on: MOLT-4
K562 = tested on: K562
A498 = tested on: A498
SF-539 = tested on: SF-539
M14 = tested on: M14
Malme-3M = tested on: Malme-3M
NCI-H226 = tested on: NCI-H226
A549 = tested on: A549
SK-MEL-2 = tested on: SK-MEL-2
OVCAR-3 = tested on: OVCAR-3
HOP-18 = tested on: HOP-18
SR = tested on: SR
OVCAR-8 = tested on: OVCAR-8
SNB-19 = tested on: SNB-19
SN12C = tested on: SN12C
TK-10 = tested on: TK-10
UACC-62 = tested on: UACC-62
M19-MEL = tested on: M19-MEL
NCI-H522 = tested on: NCI-H522
COLO 205 = tested on: COLO 205
IGROV-1 = tested on: IGROV-1
RXF 393 = tested on: RXF 393
DLD-1 = tested on: DLD-1
HL-60 = tested on: HL-60
RXF 631 = tested on: RXF 631
HCT-15 = tested on: HCT-15
KM12 = tested on: KM12
DMS-273 = tested on: DMS-273
HCC 2998 = tested on: HCC 2998
CCRF-CEM = tested on: CCRF-CEM
SF-268 = tested on: SF-268
SW-620 = tested on: SW-620
SNB-78 = tested on: SNB-78
HOP-62 = tested on: HOP-62
SK-OV-3 = tested on: SK-OV-3
HCT-116 = tested on: HCT-116
UO-31 = tested on: UO-31
LXFL 529 = tested on: LXFL 529
UACC-257 = tested on: UACC-257
SK-MEL-28 = tested on: SK-MEL-28
KM-20L2 = tested on: KM-20L2
SNB-75 = tested on: SNB-75
U-251 = tested on: U-251
786-0 = tested on: 786-0
CAKI-1 = tested on: CAKI-1
SK-MEL-5 = tested on: SK-MEL-5
RPMI-8226 = tested on: RPMI-8226
DMS-114 = tested on: DMS-114
XF498 = tested on: XF498
EKVX = tested on: EKVX
LOX IMVI = tested on: LOX IMVI
SF-295 = tested on: SF-295
OVCAR-5 = tested on: OVCAR-5
HT-29 = tested on: HT-29

`C#CC[C@]12CC(=O)CC[C@H]1CC1(C2)OCCO1` was tested, and the GI50 (ACHN) was > 100 µM (inactive), the GI50 (OVCAR-4) was > 100 µM (inactive) and the GI50 (NCI-H460) was > 100 µM (inactive). For the same molecule, the GI50 (MOLT-4) was > 100 µM (inactive), the GI50 (K562) was > 100 µM (inactive) and the GI50 (A498) was > 100 µM (inactive). For the same molecule, the GI50 (SF-539) was > 100 µM (inactive), the GI50 (M14) was > 100 µM (inactive) and the GI50 (Malme-3M) was > 100 µM (inactive). For the same molecule, the GI50 (NCI-H226) was > 100 µM (inactive), the GI50 (A549) was > 100 µM (inactive) and the GI50 (SK-MEL-2) was > 100 µM (inactive). For the same molecule, the GI50 (OVCAR-3) was > 100 µM (inactive), the GI50 (HOP-18) was > 100 µM (inactive) and the GI50 (SR) was > 100 µM (inactive). The GI50 (OVCAR-8) was > 100 µM (inactive), the GI50 (SNB-19) was > 100 µM (inactive) and the GI50 (SN12C) was > 100 µM (inactive). For the same molecule, the GI50 (TK-10) was > 100 µM (inactive), the GI50 (UACC-62) was > 100 µM (inactive) and the GI50 (M19-MEL) was > 100 µM (inactive). The GI50 (NCI-H522) was > 100 µM (inactive), the GI50 (COLO 205) was > 100 µM (inactive) and the GI50 (IGROV-1) was > 100 µM (inactive). For the same molecule, the GI50 (RXF 393) was > 100 µM (inactive), the GI50 (DLD-1) was > 100 µM (inactive) and the GI50 (HL-60) was > 100 µM (inactive). The GI50 (RXF 631) was > 100 µM (inactive), the GI50 (HCT-15) was greater than 100 µM and the GI50 (KM12) was > 100 µM (inactive). For the same molecule, the GI50 (DMS-273) was > 100 µM (inactive), the GI50 (HCC 2998) was > 100 µM (inactive) and the GI50 (CCRF-CEM) was > 100 µM (inactive). For the same molecule, the GI50 (SF-268) was > 100 µM (inactive), the GI50 (SW-620) was > 100 µM (inactive) and the GI50 (SNB-78) was > 100 µM (inactive). The GI50 (HOP-62) was > 100 µM (inactive), the GI50 (SK-OV-3) was > 100 µM (inactive) and the GI50 (HCT-116) was > 100 µM (inactive). The GI50 (UO-31) was > 100 µM (inactive), the GI50 (LXFL 529) was > 100 µM (inactive) and the GI50 (UACC-257) was > 100 µM (inactive). For the same molecule, the GI50 (SK-MEL-28) was > 100 µM (inactive), the GI50 (KM-20L2) was > 100 µM (inactive) and the GI50 (SNB-75) was > 100 µM (inactive). For the same molecule, the GI50 (U-251) was > 100 µM (inactive), the GI50 (786-0) was > 100 µM (inactive) and the GI50 (CAKI-1) was > 100 µM (inactive). For the same molecule, the GI50 (SK-MEL-5) was > 100 µM (inactive), the GI50 (RPMI-8226) was > 100 µM (inactive) and the GI50 (DMS-114) was > 100 µM (inactive).
`O=C(Nc1nc2ncn(CC(COc3ccccc3)OC(=O)c3ccccc3)c2c(=O)[nH]1)c1ccccc1` (stereo not drawn) was tested, and the GI50 (XF498) was > 100 µM (inactive), the GI50 (ACHN) was > 100 µM (inactive) and the GI50 (OVCAR-4) was > 100 µM (inactive). The GI50 (MOLT-4) was > 100 µM (inactive), the GI50 (K562) was > 100 µM (inactive) and the GI50 (A498) was > 100 µM (inactive). For the same molecule, the GI50 (SF-539) was > 100 µM (inactive), the GI50 (M14) was > 100 µM (inactive) and the GI50 (EKVX) was > 100 µM (inactive). For the same molecule, the GI50 (Malme-3M) was > 100 µM (inactive), the GI50 (NCI-H226) was > 100 µM (inactive) and the GI50 (A549) was > 100 µM (inactive). For the same molecule, the GI50 (SK-MEL-2) was > 100 µM (inactive), the GI50 (OVCAR-3) was > 100 µM (inactive) and the GI50 (SR) was 58.5 µM (inactive). The GI50 (OVCAR-8) was > 100 µM (inactive), the GI50 (SNB-19) was > 100 µM (inactive) and the GI50 (SN12C) was > 100 µM (inactive). For the same molecule, the GI50 (UACC-62) was > 100 µM (inactive), the GI50 (M19-MEL) was > 100 µM (inactive) and the GI50 (NCI-H522) was > 100 µM (inactive). The GI50 (IGROV-1) was > 100 µM (inactive), the GI50 (RXF 393) was > 100 µM (inactive) and the GI50 (HL-60) was < 0.01 µM (active). For the same molecule, the GI50 (RXF 631) was > 100 µM (inactive), the GI50 (HCT-15) was greater than 100 µM and the GI50 (LOX IMVI) was > 100 µM (inactive). For the same molecule, the GI50 (KM12) was > 100 µM (inactive), the GI50 (DMS-273) was > 100 µM (inactive) and the GI50 (SW-620) was > 100 µM (inactive). The GI50 (SF-295) was 48 µM (inactive), the GI50 (HOP-62) was > 100 µM (inactive) and the GI50 (SK-OV-3) was > 100 µM (inactive). For the same molecule, the GI50 (HCT-116) was > 100 µM (inactive), the GI50 (UO-31) was > 100 µM (inactive) and the GI50 (UACC-257) was > 100 µM (inactive). For the same molecule, the GI50 (SK-MEL-28) was > 100 µM (inactive), the GI50 (OVCAR-5) was > 100 µM (inactive) and the GI50 (HT-29) was > 100 µM (inactive). The GI50 (KM-20L2) was > 100 µM (inactive), the GI50 (SNB-75) was > 100 µM (inactive) and the GI50 (U-251) was > 100 µM (inactive). For the same molecule, the GI50 (786-0) was > 100 µM (inactive), the GI50 (CAKI-1) was > 100 µM (inactive) and the GI50 (SK-MEL-5) was > 100 µM (inactive). For the same molecule, the GI50 (RPMI-8226) was > 100 µM (inactive) and the GI50 (DMS-114) was > 100 µM (inactive).
